From patent publication US20230226007A1, “NANOPARTICULATE COMPOSITION” (Algiax Pharmaceuticals GmbH, priority 2020, published 2023) come the findings set out here.

The data set is described as follows: Solubility of AP-325 in different solvents at ambient temperature. In kind it is physicochemical. The text has this:
AP-325 is a pharmaceutical agent, which is currently in clinical development. […] For a better characterization of active ingredients with low solubility, a classification according to the BCS system (=Biopharmaceutics Classification System) was introduced (Guidance for Industry: Immediate release solid oral dosage forms and FDA, 1995). This BCS system distinguishes four categories based on the solubility and permeability of the active substance. At a pH value of below 7 AP-325 can be classified as a BCS class II drug substance. The low solubility of AP-325 negatively affects the absorption into the body after oral administration due to a limited absorption of the active agent in the small intestine (such as the jejunum or ileum), which is an essential absorption window for the uptake of a drug. Consequently, the therapeutic effect cannot be achieved.
FIG. 3: Solubility of AP-325 in different solvents at ambient temperature.

Turning to `Cc1cc(NC(=O)/C(C#N)=C(\O)C2CC2)ccc1C(F)(F)F` [AP-325], the BCS classification entry (pH value of below 7) is “BCS class II”. For the same molecule, where the note is “physiological pH of 6.8 (phosphate buffer), ambient temperature”, the Solubility result is reported as “practically insoluble”.
